Numbers after ± are expanded uncertainties.
Key:
[1] = Molar enthalpy of transition or fusion; conditions: Crystal; DSC
[2] = molar enthalpy of vaporization or sublimation; conditions: 298.15 K; Crystal; Static calorimetry
[3] = Crystal; DTA

O=c1ccc2ccc(O)cc2o1 [7-hydroxy-2H-chromen-2-one]
Molar enthalpy of transition or fusion [1]: 7.47 ± 0.167 kcal/mol
molar enthalpy [2]: 31.9 ± 0.717 kcal/mol
Triple point temperature [3]: 503.74 ± 0.39 K

Reference: the NIST ThermoML archive (doi:10.1016/j.jct.2011.04.015)
